Experiments:
[1] = molecular target: T1, ATP-dependent translocase ABCB1 (Mus musculus, UniProt P06795); assay: Inhibition of P-glycoprotein in MDR mouse T lymphoma cells using rhodamine 123 assessed as ratio of fluorescent uptake relative to untreated control at 1 uM in MDR reversal assay by flow cytometry; assay type: cell-based
[2] = molecular target: T1, ATP-dependent translocase ABCB1; assay: Inhibition of P-glycoprotein in MDR mouse T lymphoma cells using rhodamine 123 assessed as ratio of fluorescent uptake relative to untreated control at 10 uM in MDR reversal assay by flow cytometry; assay type: cell-based

T1 sequence (P06795 whole entry): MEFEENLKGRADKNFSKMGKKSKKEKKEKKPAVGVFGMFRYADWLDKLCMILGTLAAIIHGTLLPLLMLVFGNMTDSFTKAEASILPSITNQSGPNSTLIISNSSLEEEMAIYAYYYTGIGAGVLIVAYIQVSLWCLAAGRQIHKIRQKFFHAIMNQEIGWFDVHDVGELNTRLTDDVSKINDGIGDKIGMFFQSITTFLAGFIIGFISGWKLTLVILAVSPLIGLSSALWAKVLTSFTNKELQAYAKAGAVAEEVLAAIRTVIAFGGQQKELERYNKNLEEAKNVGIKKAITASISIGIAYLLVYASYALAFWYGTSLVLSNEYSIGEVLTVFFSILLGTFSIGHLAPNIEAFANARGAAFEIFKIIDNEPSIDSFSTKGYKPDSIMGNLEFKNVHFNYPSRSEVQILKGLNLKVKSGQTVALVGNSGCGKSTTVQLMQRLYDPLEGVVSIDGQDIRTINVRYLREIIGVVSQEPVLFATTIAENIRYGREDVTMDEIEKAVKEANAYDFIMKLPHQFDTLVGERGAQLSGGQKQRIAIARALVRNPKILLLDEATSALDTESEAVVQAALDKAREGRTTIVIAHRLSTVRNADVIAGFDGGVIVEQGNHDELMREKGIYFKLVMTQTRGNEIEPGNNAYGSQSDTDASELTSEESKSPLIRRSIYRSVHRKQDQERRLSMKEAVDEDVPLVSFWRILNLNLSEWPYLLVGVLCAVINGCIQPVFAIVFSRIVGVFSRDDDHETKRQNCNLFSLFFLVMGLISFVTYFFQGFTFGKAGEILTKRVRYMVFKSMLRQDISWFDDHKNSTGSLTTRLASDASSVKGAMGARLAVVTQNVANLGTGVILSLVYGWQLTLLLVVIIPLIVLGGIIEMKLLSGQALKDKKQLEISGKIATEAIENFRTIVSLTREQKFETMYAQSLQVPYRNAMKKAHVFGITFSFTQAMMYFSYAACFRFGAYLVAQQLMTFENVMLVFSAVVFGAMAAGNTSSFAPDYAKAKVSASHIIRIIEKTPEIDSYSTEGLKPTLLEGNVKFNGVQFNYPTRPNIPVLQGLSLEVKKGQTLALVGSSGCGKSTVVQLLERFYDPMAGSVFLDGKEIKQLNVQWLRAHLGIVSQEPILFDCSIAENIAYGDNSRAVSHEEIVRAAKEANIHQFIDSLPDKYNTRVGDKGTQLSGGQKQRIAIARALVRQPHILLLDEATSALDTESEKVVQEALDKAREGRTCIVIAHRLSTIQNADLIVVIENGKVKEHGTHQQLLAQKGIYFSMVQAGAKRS

| SMILES | Activity [1] | Activity [2] |
| --- | --- | --- |
| COc1ccc(C2C=CN(C(=O)Oc3ccccc3)C=C2C(C)=O)cc1 (configuration not stated) | 1.81 | 7.1 |
| COc1ccccc1C1C=CN(C(=O)Oc2ccccc2)C=C1C(C)=O (configuration not stated) | 1.01 | 5.15 |
| CC(=O)C1=CN(C(=O)Oc2ccccc2)C=CC1c1ccc(C)cc1 (configuration not stated) | 1.41 | 3.58 |
| CCOC(=O)C1=CN(C(=O)Oc2ccccc2)C=CC1c1ccc(OC)cc1 (configuration not stated) | 1.3 | 19.87 |
| CCOC(=O)C1=CN(C(=O)Oc2ccccc2)C=CC1c1ccc(C)cc1 (configuration not stated) | 1.04 | 3.09 |
| CCOC(=O)C1=CN(C(=O)Oc2ccccc2)C=CC1c1ccccc1OC (configuration not stated) | 1.6 | 39.98 |

Reference: ChEMBL document CHEMBL1143712, “Structure-activity relationships of novel N-acyloxy-1,4-dihydropyridines as P-glycoprotein inhibitors” (Bioorg Med Chem, 2007)
